Data as given in the NIST ThermoML archive (doi:10.1021/je060271a).

Details: 303.15 K, Liquid, Vibrating tube method

CCCCC(=O)OCC(COC(=O)CCCC)(COC(=O)CCCC)COC(=O)CCCC [pentaerythritol tetrapentanoate]
Details | mass density [kg/m3]
4917.5 kPa | 1014
4937.6 kPa | 1014
4960.8 kPa | 1014
4980.3 kPa | 1014.2
5000.8 kPa | 1014.1
5025.3 kPa | 1014.2
5046.6 kPa | 1014.1
5067.7 kPa | 1014.1
5090.5 kPa | 1014.1
5111.3 kPa | 1014.1
5136.1 kPa | 1014.1
5153.9 kPa | 1014.2
5159.6 kPa | 1014.2
5160.1 kPa | 1014.2
5161.3 kPa | 1014.2
5164.9 kPa | 1014.2
5167.4 kPa | 1014.3
5169.1 kPa | 1014.2
5170.1 kPa | 1014.2
5173.9 kPa | 1014.1
5178.6 kPa | 1014.2
5179.3 kPa | 1014.2
5180.5 kPa | 1014.2
5181.4 kPa | 1014.2
5181.7 kPa | 1014.2
5182.6 kPa | 1014.3
5182.9 kPa | 1014.3
5183.8 kPa | 1014.2
5184.3 kPa | 1014.2
5184.7 kPa | 1014.2
5185.4 kPa | 1014.2
5185.5 kPa | 1014.3
5189.7 kPa | 1014.1
5199.6 kPa | 1014.3
5209.2 kPa | 1014.3
5217.7 kPa | 1014.2
5223.9 kPa | 1014.2
5239.9 kPa | 1014.2
5266.9 kPa | 1014.4
5289.9 kPa | 1014.2
5312.7 kPa | 1014.4
5340.7 kPa | 1014.1
5364.2 kPa | 1014.3
5388.3 kPa | 1014.4
5417.9 kPa | 1014.3
5443 kPa | 1014.4
5468.4 kPa | 1014.4
5493.1 kPa | 1014.4
5518.4 kPa | 1014.5
5548.5 kPa | 1014.4
5573.5 kPa | 1014.4
5599.8 kPa | 1014.5
5631 kPa | 1014.4
5657.1 kPa | 1014.5
5684.4 kPa | 1014.6
5712.8 kPa | 1014.5
5747 kPa | 1014.4
5774.2 kPa | 1014.6
5801.5 kPa | 1014.6
5829.1 kPa | 1014.6
5862.5 kPa | 1014.7
5891.4 kPa | 1014.7
5920.4 kPa | 1014.8
5955.2 kPa | 1014.6
5985.3 kPa | 1014.7
6015.3 kPa | 1014.7
6045.8 kPa | 1014.8
6082.1 kPa | 1014.7
6112.3 kPa | 1014.8
6149.7 kPa | 1014.8
6181.5 kPa | 1014.8
6213.5 kPa | 1014.9
6246.6 kPa | 1014.8
6279.6 kPa | 1014.9
6319.4 kPa | 1014.9
6353.6 kPa | 1015
6388.4 kPa | 1014.9
6430.4 kPa | 1015
6466 kPa | 1014.9
6496.2 kPa | 1015
6524.4 kPa | 1015.1
6558.6 kPa | 1015.1
6587.6 kPa | 1015.1
6617.8 kPa | 1015.1
6648.1 kPa | 1015.2
6678.6 kPa | 1015.1
6714 kPa | 1015.2
6743.7 kPa | 1015.3
6774.5 kPa | 1015.2
6811.1 kPa | 1015.3
6842.3 kPa | 1015.2
6873.4 kPa | 1015.3
6911.1 kPa | 1015.3
6943.4 kPa | 1015.4
6975.7 kPa | 1015.2
7008.7 kPa | 1015.3
7048.1 kPa | 1015.3
7083.3 kPa | 1015.5
7119.9 kPa | 1015.4
7154.6 kPa | 1015.4
7190.2 kPa | 1015.4
7232.8 kPa | 1015.5
7266.1 kPa | 1015.6
7296.5 kPa | 1015.5
7326.2 kPa | 1015.5
7361.8 kPa | 1015.6
7392.7 kPa | 1015.6
7425.7 kPa | 1015.6
7461.8 kPa | 1015.7
7491.3 kPa | 1015.7
7529.6 kPa | 1015.6
7561.2 kPa | 1015.7
7593.6 kPa | 1015.8
7626.1 kPa | 1015.9
7659.1 kPa | 1015.6
7692.2 kPa | 1015.8
7732.6 kPa | 1015.9
7766.1 kPa | 1015.8
7800.6 kPa | 1015.9
7835 kPa | 1015.7
7876.5 kPa | 1015.9
7911.6 kPa | 1016
7947.1 kPa | 1016
7990.4 kPa | 1016
8026.7 kPa | 1015.9
8062.9 kPa | 1016.1
8107.6 kPa | 1016.1
8145.4 kPa | 1016.1
8184.2 kPa | 1016.2
8222.5 kPa | 1016.2
8262.2 kPa | 1016.2
8293.2 kPa | 1016.2
8323.8 kPa | 1016.3
8354.7 kPa | 1016.2
8392.8 kPa | 1016.3
8424.5 kPa | 1016.1
8457.1 kPa | 1016.3
8489 kPa | 1016.4
8528 kPa | 1016.3
8560.4 kPa | 1016.4
8593.7 kPa | 1016.5
8633.4 kPa | 1016.4
8666.8 kPa | 1016.3
8707.5 kPa | 1016.4
8742.2 kPa | 1016.4
8776.3 kPa | 1016.6
8818.4 kPa | 1016.6
8854.8 kPa | 1016.4
8890.8 kPa | 1016.5
8920.7 kPa | 1016.5
8952.9 kPa | 1016.6
8979.8 kPa | 1016.7
9013.1 kPa | 1016.5
9039.8 kPa | 1016.6
9066.8 kPa | 1016.6
9100.5 kPa | 1016.7
9128.4 kPa | 1016.7
9157.4 kPa | 1016.6
9191.7 kPa | 1016.8
9218.7 kPa | 1016.8
9247.2 kPa | 1016.8
9281.8 kPa | 1016.7
9311.6 kPa | 1016.7
9342 kPa | 1016.8
9371.6 kPa | 1016.9
9407.8 kPa | 1016.8
9438.5 kPa | 1016.8
9469.3 kPa | 1017
9495.9 kPa | 1017
9521 kPa | 1016.9
9552.9 kPa | 1017
9584.8 kPa | 1016.9
9608.9 kPa | 1017
9634.2 kPa | 1017
9666.8 kPa | 1017
9688 kPa | 1017
9719.7 kPa | 1017.1
9746.4 kPa | 1017.1
9779.5 kPa | 1017.2
9805.7 kPa | 1017.2
9831.9 kPa | 1017.1
9858.9 kPa | 1017.1
9892.2 kPa | 1017.1
9921.6 kPa | 1017.2
9948 kPa | 1017.2
9980.5 kPa | 1017.3
10009 kPa | 1017.3
10046 kPa | 1017.3
10069 kPa | 1017.3
10099 kPa | 1017.4
10134 kPa | 1017.2
10161 kPa | 1017.2
10195 kPa | 1017.3
10225 kPa | 1017.5
10254 kPa | 1017.4
10289 kPa | 1017.4
10319 kPa | 1017.5
10351 kPa | 1017.4
10382 kPa | 1017.1
10417 kPa | 1017.5
10448 kPa | 1017.6
10480 kPa | 1017.6
10517 kPa | 1017.7
10550 kPa | 1017.5
10583 kPa | 1017.6
10624 kPa | 1017.7
10658 kPa | 1017.5
10690 kPa | 1017.7
10713 kPa | 1017.7
10757 kPa | 1017.7
10800 kPa | 1017.6
10821 kPa | 1017.7
10840 kPa | 1017.8
10863 kPa | 1017.8
10883 kPa | 1017.9
10904 kPa | 1017.8
10928 kPa | 1017.9
10947 kPa | 1017.9
10968 kPa | 1017.8
10992 kPa | 1017.9
11013 kPa | 1017.8
11033 kPa | 1017.9
11058 kPa | 1017.9
11078 kPa | 1017.9
11101 kPa | 1018
11121 kPa | 1018
11147 kPa | 1017.9
11168 kPa | 1017.9
11191 kPa | 1018.1
11213 kPa | 1017.9
11234 kPa | 1017.9
11255 kPa | 1018.1
11281 kPa | 1018
11302 kPa | 1018
11328 kPa | 1018.2
11349 kPa | 1018.1
11372 kPa | 1018.1
11398 kPa | 1018.1
11420 kPa | 1018.2
11443 kPa | 1018
11469 kPa | 1018.2
11491 kPa | 1018.1
11513 kPa | 1018.1
11541 kPa | 1018.2
11564 kPa | 1018.2
11586 kPa | 1018.3
11612 kPa | 1018.2
11635 kPa | 1018.2
11658 kPa | 1018.3
11688 kPa | 1018.3
11710 kPa | 1018.2
11734 kPa | 1018.2
11758 kPa | 1018.4
11785 kPa | 1018.3
11809 kPa | 1018.3
11838 kPa | 1018.4
11862 kPa | 1018.4
11884 kPa | 1018.5
11909 kPa | 1018.4
11938 kPa | 1018.6
11963 kPa | 1018.4
11988 kPa | 1018.5
12014 kPa | 1018.5
12044 kPa | 1018.5
12069 kPa | 1018.5
12095 kPa | 1018.5
12120 kPa | 1018.5
12148 kPa | 1018.6
12173 kPa | 1018.6
12205 kPa | 1018.5
12229 kPa | 1018.7
12254 kPa | 1018.5
12285 kPa | 1018.7
12312 kPa | 1018.6
12338 kPa | 1018.6
12366 kPa | 1018.7
12391 kPa | 1018.8
12423 kPa | 1018.7
12449 kPa | 1018.7
12476 kPa | 1018.7
12508 kPa | 1018.8
12536 kPa | 1018.8
12562 kPa | 1018.8
12596 kPa | 1018.8
12621 kPa | 1018.8
12649 kPa | 1018.8
12682 kPa | 1018.8
12710 kPa | 1018.8
12740 kPa | 1018.9
12766 kPa | 1018.9
12798 kPa | 1019
12826 kPa | 1018.9
12856 kPa | 1019
12889 kPa | 1019.1
12918 kPa | 1019.1
12946 kPa | 1019
12980 kPa | 1019.1
13009 kPa | 1019
13044 kPa | 1019.1
13075 kPa | 1019.2
13102 kPa | 1019.2
13132 kPa | 1019.1
13169 kPa | 1019.2
13197 kPa | 1019.1
13227 kPa | 1019.2
13258 kPa | 1019.1
13295 kPa | 1019.2
13324 kPa | 1019.2
13359 kPa | 1019.3
13390 kPa | 1019.3
13421 kPa | 1019.3
13458 kPa | 1019.3
13489 kPa | 1019.4
13520 kPa | 1019.4
13558 kPa | 1019.4
13590 kPa | 1019.4
13622 kPa | 1019.4
13660 kPa | 1019.5
13693 kPa | 1019.5
13725 kPa | 1019.6
